The structures appear in SMILES notation.

One assay concerns the target T1, Chitin synthase 3 (Saccharomyces cerevisiae S288c, UniProt P29465).
T1 sequence (P29465 whole entry): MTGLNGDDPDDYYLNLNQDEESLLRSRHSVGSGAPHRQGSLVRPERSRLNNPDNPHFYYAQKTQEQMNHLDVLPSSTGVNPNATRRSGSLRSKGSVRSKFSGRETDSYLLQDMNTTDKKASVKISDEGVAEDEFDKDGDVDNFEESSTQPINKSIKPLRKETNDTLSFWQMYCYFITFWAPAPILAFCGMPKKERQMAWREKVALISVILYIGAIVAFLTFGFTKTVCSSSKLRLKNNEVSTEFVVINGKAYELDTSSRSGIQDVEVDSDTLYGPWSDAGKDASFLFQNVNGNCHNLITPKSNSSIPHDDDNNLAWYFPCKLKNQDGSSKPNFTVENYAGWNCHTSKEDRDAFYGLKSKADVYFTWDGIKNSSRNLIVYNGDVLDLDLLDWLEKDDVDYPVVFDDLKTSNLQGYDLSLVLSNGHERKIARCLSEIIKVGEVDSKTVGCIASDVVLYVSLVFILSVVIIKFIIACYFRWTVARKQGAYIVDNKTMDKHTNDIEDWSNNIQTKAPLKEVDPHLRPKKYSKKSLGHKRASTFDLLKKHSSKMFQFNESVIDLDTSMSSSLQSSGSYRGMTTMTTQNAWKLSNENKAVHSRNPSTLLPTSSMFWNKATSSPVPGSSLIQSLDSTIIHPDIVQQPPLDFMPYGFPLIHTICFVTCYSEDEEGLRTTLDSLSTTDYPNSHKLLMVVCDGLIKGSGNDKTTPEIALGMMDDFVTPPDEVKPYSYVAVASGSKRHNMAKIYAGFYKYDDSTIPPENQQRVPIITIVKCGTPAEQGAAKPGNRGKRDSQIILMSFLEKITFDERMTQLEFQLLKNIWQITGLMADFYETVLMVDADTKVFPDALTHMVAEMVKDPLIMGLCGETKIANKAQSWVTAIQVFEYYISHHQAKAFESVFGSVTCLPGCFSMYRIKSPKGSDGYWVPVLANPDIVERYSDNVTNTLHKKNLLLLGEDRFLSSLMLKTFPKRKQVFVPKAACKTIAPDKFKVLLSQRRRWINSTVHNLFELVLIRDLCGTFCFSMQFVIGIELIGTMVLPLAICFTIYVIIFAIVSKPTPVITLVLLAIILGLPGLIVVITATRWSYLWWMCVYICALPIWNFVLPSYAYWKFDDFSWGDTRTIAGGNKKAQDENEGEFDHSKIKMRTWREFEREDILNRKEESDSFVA
The assay is described as follows: Inhibition of Saccharomyces cerevisiae chitin synthase.
One may read the IC50 as the concentration at which inhibition is half-maximal. The compound `COc1cccc(/C=C/C(=O)c2ccccc2)c1OC` gave an IC50 of 298 µM.

As for `O=C(/C=C/c1ccco1)c1ccc(Cl)cc1Cl`, the midpoint of inhibition, the IC50, lay at 824 µM. This IC50 lies about 2.8-fold higher than the previous one.

`COc1ccc(/C=C/C(=O)c2ccccc2)c(OC)c1`: 372 µM corresponded to half-maximal inhibition (IC50).

In turn, `COc1ccc(/C=C/C(=O)c2ccccc2)cc1OC` showed an IC50 of 372 µM.

Compound `O=C(/C=C/c1ccc2ccccc2c1)c1ccccc1` gave an IC50 of 94.2 µM.

For another assay, the target named is Chitin synthase (Candida albicans, UniProt P30572+P23316+P30573). The assay is described as follows: Inhibition of Candida albicans chitin synthase. The assay is classed as protein assay.
A word on the pIC50: it is −log10 of the IC50, conventionally taken in molar units. A lower pIC50 goes with a large IC50. The compound `CC(C)(C)C#C/C=C/CNc1cccc2c1CCC(=O)N2` had a pIC50 of 3.6.

Compound `CCOP(=O)(OCC)OC1Cc2c(cccc2N(C)CC#CC#CC(C)(C)C)NC1=O` (configuration not stated) showed a pIC50 of 5.769.

The compound `CN(CC#CC#CC(C)(C)C)c1cccc2c1CC(N)C(=O)N2` (configuration not stated) gave a pIC50 of 4.401.

Take `CN(CC#CC#CC(C)(C)O)c1cccc2c1CCC(=O)N2`: the pIC50 is 3.143.

Regarding `CC(C)N(C/C=C/C#CC(C)(C)C)c1cccc2c1CCC(=O)N2`, the pIC50 was 5.421.

In the case of `CN(CC#CC#CC(C)(C)C)c1cccc2c1CCC(=O)N2`, the pIC50 is reported as 6.323.

The compound `CCN(C/C=C/C#CC(C)(C)C)c1cccc2c1CCC(=O)N2` returned a pIC50 of 5.538.

The compound `CN(CC#CC#CC(C)(C)C)c1cccc2c1CC(O)C(=O)N2` (configuration not stated) showed a pIC50 of 5.015.

The compound `CC(C)[C@H](N)C(=O)OC1Cc2c(cccc2N(C)CC#CC#CC(C)(C)C)NC1=O` (some centres not stated) returned a pIC50 of 4.422.

In turn, `CCCCCN(C/C=C/C#CC(C)(C)C)c1cccc2c1CCC(=O)N2` displayed a pIC50 of 5.506.

Compound `CCCN(C/C=C/C#CC(C)(C)C)c1cccc2c1CCC(=O)N2` registered a pIC50 of 5.679. The pIC50 values of the last two compounds are within 0.2 log units of each other.

`CCC#CC#CCN(C)c1cccc2c1CCC(=O)N2` displayed a pIC50 of 4.529.

Regarding `CC(C)(C)C#C/C=C/CN(Cc1ccccc1)c1cccc2c1CCC(=O)N2`, the pIC50 was 3.839.

`CN(C/C=C/C#CC(C)(C)C)c1cccc2c1CCC(=O)N2` displayed a pIC50 of 5.029.

As for `CN(CCCC#CC(C)(C)C)c1cccc2c1CCC(=O)N2`, the pIC50 came out at 4.523.

For `CCCCN(C/C=C/C#CC(C)(C)C)c1cccc2c1CCC(=O)N2`, the pIC50 worked out at 5.985.

Regarding `CN(Cc1ccc(C#CC(C)(C)C)cc1)c1cccc2c1CCC(=O)N2`, the pIC50 is recorded as 4.681.

Source of the values: ChEMBL document CHEMBL3046528, “Pharmacophore-based 3D-QSAR study of fungal chitin synthase inhibitors” (Med Chem Res, 2013).
